The structures appear in SMILES notation.

Assay type in all cases: in vivo
The test system of experiment [1] is Yellow nutsedge. As to the kind of experiment: Pre-emergence herbicide test. To be noted: Cyperus, read-out: % plant inhibition (Yens); for inhibition at 1120 g/ha: 1.12 kg/ha. The gist of the method:
(§1)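 Seeds or propagules placed on compacted topsoil, treated directly with a known amount of active ingredient in organic solvent or water, then covered with untreated soil. Pans kept in greenhouse, sub-irrigated; % inhibition scored about 10–14 days (usually 11) after seeding.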

The subject of experiment [2] is Barnyardgrass. As to the kind of experiment: Pre-emergence herbicide test. The conditions noted are these: Echinochloa crus-galli, read-out: % plant inhibition (Bygr); for inhibition at 1120 g/ha: 1.12 kg/ha. The gist of the method: as §1
Experiment [3] concerns Indian Mustard. As to the kind of experiment: Pre-emergence herbicide test. The conditions noted are these: Brassica juncea, read-out: % plant inhibition (Inmu); for inhibition at 1120 g/ha: 1.12 kg/ha. The gist of the method:
as §1

The test system of experiment [4] is Velvetleaf. As to the kind of experiment: Pre-emergence herbicide test. To be noted: Abutilon theophrasti, read-out: % plant inhibition (Vele); for inhibition at 1120 g/ha: 1.12 kg/ha. The gist of the method:
as §1

The test system of experiment [5] is Cocklebur. The experiment can be described thus: Pre-emergence herbicide test. The conditions noted are these: Xanthium strumarium, read-out: % plant inhibition (Cobu); for inhibition at 1120 g/ha: 1.12 kg/ha. In outline:
as §1

Experiment [6] has as its system Annual bluegrass. The experiment can be described thus: Pre-emergence herbicide test. To be noted: read-out: % plant inhibition (Anbg); for inhibition at 1120 g/ha: 1.12 kg/ha. In outline: as §1
Experiment [7] deals with Seedling johnsongrass. As to the kind of experiment: Pre-emergence herbicide test. To be noted: Sorghum halepense, read-out: % plant inhibition (Sejg); for inhibition at 1120 g/ha: 1.12 kg/ha. The gist of the method: as §1
The test system of experiment [8] is Morningglory. As to the kind of experiment: Pre-emergence herbicide test. To be noted: Ipomoea, read-out: % plant inhibition (Mogl); for inhibition at 1120 g/ha: 1.12 kg/ha. In outline:
as §1

Experiment [9] concerns Downy Brome. The experiment can be described thus: Pre-emergence herbicide test. To be noted: Bromus tectorum, read-out: % plant inhibition (Dobr); for inhibition at 1120 g/ha: 1.12 kg/ha. The gist of the method:
as §1

In experiment [10] the test system is Wild buckwheat. The experiment can be described thus: Pre-emergence herbicide test. The conditions noted are these: Fallopia convolvulus, read-out: % plant inhibition (Wibw); for inhibition at 1120 g/ha: 1.12 kg/ha. In outline:
as §1

The test system of experiment [11] is Yellow nutsedge. As to the kind of experiment: Post-emergence herbicide test. To be noted: Cyperus, read-out: % plant inhibition (Yens); for inhibition at 1120 g/ha: 1.12 kg/ha. The gist of the method: (§2)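 Post-emergence greenhouse spray: 2–3-wk-old plants in soil pans; atomizer at 170.3 kPa (10 psig); 1870 L/Ha carrier volume, ~0.4% v/v emulsifier. Read-out is % inhibition vs control at 10–14 d (usually 11 d), occasionally also 24–28 d.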

Experiment [12] concerns Barnyardgrass. The experiment can be described thus: Post-emergence herbicide test. The conditions noted are these: Echinochloa crus-galli, read-out: % plant inhibition (Bygr); for inhibition at 1120 g/ha: 1.12 kg/ha. In outline: as §2
For experiment [13], the system named is Indian Mustard. The experiment can be described thus: Post-emergence herbicide test. The conditions noted are these: Brassica juncea, read-out: % plant inhibition (Inmu); for inhibition at 1120 g/ha: 1.12 kg/ha. In outline:
as §2

Experiment [14] concerns Velvetleaf. As to the kind of experiment: Post-emergence herbicide test. The conditions noted are these: Abutilon theophrasti, read-out: % plant inhibition (Vele); for inhibition at 1120 g/ha: 1.12 kg/ha. In outline:
as §2

The test system of experiment [15] is Cocklebur. As to the kind of experiment: Post-emergence herbicide test. To be noted: Xanthium strumarium, read-out: % plant inhibition (Cobu); for inhibition at 1120 g/ha: 1.12 kg/ha. The gist of the method: as §2
Experiment [16] deals with Annual bluegrass. The experiment can be described thus: Post-emergence herbicide test. To be noted: read-out: % plant inhibition (Anbg); for inhibition at 1120 g/ha: 1.12 kg/ha. In outline:
as §2

For experiment [17], the system named is Seedling johnsongrass. The experiment can be described thus: Post-emergence herbicide test. To be noted: Sorghum halepense, read-out: % plant inhibition (Sejg); for inhibition at 1120 g/ha: 1.12 kg/ha. The gist of the method:
as §2

Experiment [18] deals with Morningglory. As to the kind of experiment: Post-emergence herbicide test. The conditions noted are these: Ipomoea, read-out: % plant inhibition (Mogl); for inhibition at 1120 g/ha: 1.12 kg/ha. The gist of the method:
as §2

Experiment [19] has as its system Downy Brome. As to the kind of experiment: Post-emergence herbicide test. The conditions noted are these: Bromus tectorum, read-out: % plant inhibition (Dobr); for inhibition at 1120 g/ha: 1.12 kg/ha. In outline: as §2
The subject of experiment [20] is Wild buckwheat. As to the kind of experiment: Post-emergence herbicide test. To be noted: Fallopia convolvulus, read-out: % plant inhibition (Wibw); for inhibition at 1120 g/ha: 1.12 kg/ha. In outline:
as §2

For `Cn1nc(-c2cc(CO)c(Cl)cc2F)c(Cl)c1C(F)(F)F` [Compound 122, 2-chloro-5-[4-chloro-1-methyl-5-(trifluoromethyl)-1H-pyrazol-3-yl]-4-fluorobenzenemethanol], the inhibition at 1120 g/ha came out at 0% in the experiment with Yellow nutsedge [1]; 80% in the experiment on Barnyardgrass [2]; 100% in the experiment on Indian Mustard [3]; 100% in the experiment with Velvetleaf [4]; 40% in the experiment with Cocklebur [5]; 20% in the experiment with Annual bluegrass [6]. For the same compound, the inhibition at 1120 g/ha is 40% in the experiment with Seedling johnsongrass [7]; 80% with Morningglory [8]; 20% with Downy Brome [9]; 70% with Wild buckwheat [10]; 20% in the experiment on Yellow nutsedge [11]; 70% in the experiment with Barnyardgrass [12]. In addition, the inhibition at 1120 g/ha with Indian Mustard [13] is 50%; in the experiment with Velvetleaf [14] it was 100%; in the experiment with Cocklebur [15] it was 60%; in the experiment on Annual bluegrass [16], 20%; in the experiment with Seedling johnsongrass [17], 70%; in the experiment with Morningglory [18], 80%. The figures for the inhibition at 1120 g/ha in the experiment on Downy Brome [19] and in the experiment with Wild buckwheat [20] were 20% and 90%, respectively.
For the compound `CCOC(=O)CSCc1cc(-c2nn(C)c(C(F)(F)F)c2Cl)c(F)cc1Cl` [Compound 123], the inhibition at 1120 g/ha in the experiment on Yellow nutsedge [1] was found to be 30%; in the experiment on Barnyardgrass [2] it was 30%; with Indian Mustard [3] it was 80%; in the experiment on Velvetleaf [4], 100%; in the experiment with Cocklebur [5], 50%; in the experiment on Annual bluegrass [6], 0%. Besides, the inhibition at 1120 g/ha in the experiment on Seedling johnsongrass [7] was determined as 40%; in the experiment with Morningglory [8] it was 100%; in the experiment with Downy Brome [9], 70%; with Wild buckwheat [10], 90%; in the experiment on Yellow nutsedge [11], 20%; in the experiment with Barnyardgrass [12], 50%. The inhibition at 1120 g/ha was 30% with Indian Mustard [13]; 100% with Velvetleaf [14]; 70% in the experiment with Cocklebur [15]; 0% with Annual bluegrass [16]; 50% in the experiment with Seedling johnsongrass [17]; 100% with Morningglory [18]. The inhibition at 1120 g/ha in the experiment on Downy Brome [19] came out at 60%; in the experiment with Wild buckwheat [20] it was 90%.
In the case of `Cc1cc(-c2nn(C)c(C(F)(F)F)c2Cl)c(F)cc1Cl` [Compound 124], the inhibition at 11210 g/ha came out at 20% in the experiment on Yellow nutsedge [1] (11.21 kg/ha); 100% with Barnyardgrass [2] (11.21 kg/ha); 100% with Indian Mustard [3] (11.21 kg/ha); 100% with Velvetleaf [4] (11.21 kg/ha); 100% with Cocklebur [5] (11.21 kg/ha); 100% in the experiment on Annual bluegrass [6] (11.21 kg/ha). Further, the inhibition at 11210 g/ha with Seedling johnsongrass [7] (11.21 kg/ha) was found to be 100%; in the experiment with Morningglory [8] (11.21 kg/ha) it was 100%; in the experiment on Downy Brome [9] (11.21 kg/ha), 100%; in the experiment with Wild buckwheat [10] (11.21 kg/ha), 100%; with Yellow nutsedge [11] (11.21 kg/ha), 20%; in the experiment on Barnyardgrass [12] (11.21 kg/ha), 90%. Besides, the inhibition at 11210 g/ha with Indian Mustard [13] (11.21 kg/ha) was 90%; in the experiment on Velvetleaf [14] (11.21 kg/ha), 100%; in the experiment with Cocklebur [15] (11.21 kg/ha), 70%; in the experiment with Annual bluegrass [16] (11.21 kg/ha) it was 70%; in the experiment with Seedling johnsongrass [17] (11.21 kg/ha), 100%; in the experiment with Morningglory [18] (11.21 kg/ha) it was 100%. Besides, the results for the inhibition at 11210 g/ha with Downy Brome [19] (11.21 kg/ha) and with Wild buckwheat [20] (11.21 kg/ha) were 50% and 100%, respectively.
As to `Cc1cc(-c2nn(C)c(C(F)(F)F)c2Br)c(F)cc1Cl` [Compound 125], the inhibition at 1120 g/ha in the experiment with Yellow nutsedge [1] is 0%; with Barnyardgrass [2], 100%; with Indian Mustard [3], 100%; with Velvetleaf [4], 100%; with Cocklebur [5] it was 30%; in the experiment on Annual bluegrass [6], 100%. The inhibition at 1120 g/ha with Seedling johnsongrass [7] is 100%; in the experiment with Morningglory [8] it was 90%; in the experiment on Downy Brome [9], 90%; with Wild buckwheat [10], 100%; in the experiment on Yellow nutsedge [11], 0%; in the experiment with Barnyardgrass [12], 0%. Further, the inhibition at 1120 g/ha in the experiment with Indian Mustard [13] is 30%; with Velvetleaf [14] it was 100%; in the experiment on Cocklebur [15], 40%; in the experiment on Annual bluegrass [16] it was 20%; with Seedling johnsongrass [17], 0%; in the experiment with Morningglory [18] it was 30%. The results for the inhibition at 1120 g/ha in the experiment on Downy Brome [19] and with Wild buckwheat [20] were 0% and 100%, respectively.
Take `Cc1cc(-c2nn(C)c(C(F)F)c2Cl)c(F)cc1Cl` [Compound 126]: the inhibition at 1120 g/ha in the experiment on Yellow nutsedge [1] was 0%; with Barnyardgrass [2] it was 100%; in the experiment with Indian Mustard [3] it was 100%; in the experiment on Velvetleaf [4], 100%; in the experiment on Cocklebur [5], 50%; in the experiment with Annual bluegrass [6], 100%. Also, the inhibition at 1120 g/ha came out at 100% with Seedling johnsongrass [7]; 100% in the experiment on Morningglory [8]; 100% with Downy Brome [9]; 100% with Wild buckwheat [10]; 10% in the experiment on Yellow nutsedge [11]; 50% in the experiment with Barnyardgrass [12]. For the same compound, the inhibition at 1120 g/ha with Indian Mustard [13] is 40%; in the experiment on Velvetleaf [14], 90%; with Cocklebur [15], 30%; in the experiment with Annual bluegrass [16] it was 40%; in the experiment on Seedling johnsongrass [17] it was 30%; in the experiment with Morningglory [18] it was 60%. Besides, the figures for the inhibition at 1120 g/ha in the experiment with Downy Brome [19] and in the experiment with Wild buckwheat [20] were 0% and 80%, respectively.
`CCOC(=O)C(C)=Cc1cc(-c2nn(C)c(C(F)(F)F)c2Cl)c(F)cc1Cl` [Compound 127]: the inhibition at 1120 g/ha with Yellow nutsedge [1] was found to be 0%; with Barnyardgrass [2], 30%; with Indian Mustard [3], 90%; with Velvetleaf [4], 100%; in the experiment on Cocklebur [5], 20%; with Annual bluegrass [6], 0%. In addition, the inhibition at 1120 g/ha came to 20% with Seedling johnsongrass [7]; 70% in the experiment on Morningglory [8]; 0% in the experiment on Downy Brome [9]; 100% with Wild buckwheat [10]; 20% in the experiment with Yellow nutsedge [11]; 60% with Barnyardgrass [12]. Moreover, the inhibition at 1120 g/ha was 100% in the experiment on Indian Mustard [13]; 100% with Velvetleaf [14]; 100% in the experiment with Cocklebur [15]; 20% in the experiment with Annual bluegrass [16]; 100% with Seedling johnsongrass [17]; 100% in the experiment with Morningglory [18]. The inhibition at 1120 g/ha worked out at 80% with Downy Brome [19] and 100% in the experiment with Wild buckwheat [20].
Turning to `COC(=O)C=Cc1cc(-c2nn(C)c(C(F)(F)F)c2Cl)c(F)cc1Cl` [Compound 128, 3-(2-chloro-5-(4-chloro-1-methyl-5-(trifluoromethyl)-1H-pyrazol-3-yl)-4-fluorophenyl)propenoic acid, methyl ester], the inhibition at 1120 g/ha in the experiment on Yellow nutsedge [1] came out at 0%; with Barnyardgrass [2], 0%; with Indian Mustard [3], 70%; with Velvetleaf [4], 100%; with Cocklebur [5], 70%; in the experiment on Annual bluegrass [6] it was 0%. The inhibition at 1120 g/ha is 30% in the experiment with Seedling johnsongrass [7]; 80% in the experiment with Morningglory [8]; 0% in the experiment on Downy Brome [9]; 100% in the experiment with Wild buckwheat [10]; 20% in the experiment with Yellow nutsedge [11]; 50% with Barnyardgrass [12]. Besides, the inhibition at 1120 g/ha in the experiment with Indian Mustard [13] is 90%; with Velvetleaf [14], 100%; with Cocklebur [15], 100%; in the experiment on Annual bluegrass [16] it was 30%; with Seedling johnsongrass [17] it was 100%; in the experiment with Morningglory [18], 100%. For the same compound, the inhibition at 1120 g/ha in the experiment on Downy Brome [19] and in the experiment with Wild buckwheat [20] was 100% throughout.

By inhibition is commonly meant the relative decrease from the control value, in per cent.

Values taken from US5530126A, “Process for the preparation of substituted 6-(pyrazol-3yl)-1,4-benzoxazin-3-ones” (Monsanto Company, priority 1994, dated 1996).
